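All cell lines were grown in 96-well plates and treated with compound for 48 hours. GI50 is the concentration that inhibits growth by half.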 Activity calls are given as the source filed them. No stated cut-off is given here; in the data, active = GI50 up to about 1.1 µM and inactive = higher.
What was measured:
Experiment in all cases: inhibition of tumour cell growth, NCI panel, 48 h
LXFL 529 = system: LXFL 529
MOLT-4 = system: MOLT-4
NCI-H23 = system: NCI-H23
DMS-273 = system: DMS-273
NCI-H226 = system: NCI-H226
COLO 205 = system: COLO 205
U-251 = system: U-251
UACC-62 = system: UACC-62
SF-539 = system: SF-539
OVCAR-8 = system: OVCAR-8
DLD-1 = system: DLD-1
CCRF-CEM = system: CCRF-CEM
SK-MEL-5 = system: SK-MEL-5
Malme-3M = system: Malme-3M
OVCAR-5 = system: OVCAR-5
SK-MEL-2 = system: SK-MEL-2
RPMI-8226 = system: RPMI-8226
SK-MEL-28 = system: SK-MEL-28
DMS-114 = system: DMS-114
786-0 = system: 786-0
K562 = system: K562
RXF 393 = system: RXF 393
UO-31 = system: UO-31
OVCAR-3 = system: OVCAR-3
TK-10 = system: TK-10
SNB-75 = system: SNB-75
KM-20L2 = system: KM-20L2
SNB-78 = system: SNB-78
EKVX = system: EKVX
HL-60 = system: HL-60
XF498 = system: XF498
SK-OV-3 = system: SK-OV-3
SF-295 = system: SF-295
IGROV-1 = system: IGROV-1
HCC 2998 = system: HCC 2998
UACC-257 = system: UACC-257
A549 = system: A549
LOX IMVI = system: LOX IMVI
HOP-92 = system: HOP-92
SW-620 = system: SW-620
HOP-62 = system: HOP-62
HT-29 = system: HT-29
HCT-116 = system: HCT-116
M14 = system: M14
KM12 = system: KM12
SF-268 = system: SF-268
NCI-H522 = system: NCI-H522
RXF 631 = system: RXF 631
SR = system: SR
HOP-18 = system: HOP-18
NCI-H460 = system: NCI-H460
M19-MEL = system: M19-MEL
HCT-15 = system: HCT-15
SNB-19 = system: SNB-19
A498 = system: A498
CAKI-1 = system: CAKI-1
SN12C = system: SN12C
OVCAR-4 = system: OVCAR-4
ACHN = system: ACHN

Measured: GI50

C/C(CC(=O)Nc1cccc([N+](=O)[O-])c1)=N\NC(=O)CC#N
inactive: LXFL 529 > 100 µM | MOLT-4 > 100 µM | NCI-H23 > 100 µM | DMS-273 > 100 µM | NCI-H226 > 100 µM | COLO 205 > 100 µM | U-251 > 100 µM | UACC-62 > 100 µM | SF-539 > 100 µM | OVCAR-8 > 100 µM | DLD-1 > 100 µM | CCRF-CEM > 100 µM | SK-MEL-5 > 100 µM | Malme-3M > 100 µM | OVCAR-5 > 100 µM | SK-MEL-2 > 100 µM | RPMI-8226 > 100 µM | SK-MEL-28 > 100 µM | DMS-114 > 100 µM | 786-0 > 100 µM | K562 > 100 µM | RXF 393 > 100 µM | UO-31 > 100 µM | OVCAR-3 > 100 µM | TK-10 > 100 µM | SNB-75 > 100 µM | KM-20L2 > 100 µM | SNB-78 > 100 µM | EKVX > 100 µM | HL-60 > 100 µM | XF498 > 100 µM | SK-OV-3 > 100 µM | SF-295 > 100 µM | IGROV-1 > 100 µM | HCC 2998 > 100 µM | UACC-257 > 100 µM | A549 > 100 µM | LOX IMVI > 100 µM | HOP-92 > 100 µM | SW-620 > 100 µM | HOP-62 > 100 µM | HT-29 > 100 µM | HCT-116 > 100 µM | M14 > 100 µM | KM12 > 100 µM | SF-268 > 100 µM | NCI-H522 99.1 µM | RXF 631 > 100 µM

O=C(Nc1ccc(Cl)cc1Cl)C(=O)Nn1c(S)nc2ccccc2c1=O
inactive: LXFL 529 > 100 µM | MOLT-4 > 100 µM | SR > 100 µM | DMS-273 > 100 µM | U-251 > 100 µM | CCRF-CEM > 100 µM | Malme-3M > 100 µM | SK-MEL-2 > 100 µM | RPMI-8226 > 100 µM | SK-MEL-28 > 100 µM | DMS-114 > 100 µM | 786-0 > 100 µM | K562 > 100 µM | RXF 393 > 100 µM | UO-31 > 100 µM | HOP-18 > 100 µM | OVCAR-3 > 100 µM | SNB-78 > 100 µM | NCI-H460 > 100 µM | HL-60 > 100 µM | SK-OV-3 > 100 µM | HCC 2998 > 100 µM | A549 > 100 µM | M19-MEL > 100 µM | HCT-116 > 100 µM | M14 > 100 µM | SF-268 > 100 µM | NCI-H522 > 100 µM | RXF 631 > 100 µM
> 100 µM: HCT-15

CCc1cccc(CC)c1NC(=O)C1=CNC(C)=C(C(=O)Nc2c(CC)cccc2CC)C1c1ccc(O)c(OC)c1 (stereo unspecified)
inactive: LXFL 529 27.1 µM | MOLT-4 22.3 µM | NCI-H23 36.6 µM | NCI-H226 30.1 µM | COLO 205 56.2 µM | U-251 12.4 µM | SF-539 17.6 µM | OVCAR-8 33.7 µM | DLD-1 47 µM | CCRF-CEM 21.5 µM | SK-MEL-5 32.3 µM | Malme-3M 28.1 µM | OVCAR-5 54.8 µM | SK-MEL-2 26.2 µM | RPMI-8226 16.8 µM | SK-MEL-28 33.3 µM | DMS-114 24.5 µM | 786-0 34.4 µM | K562 31.4 µM | RXF 393 25.3 µM | UO-31 29.1 µM | OVCAR-3 19 µM | TK-10 47.6 µM | SNB-75 44.7 µM | KM-20L2 49.5 µM | SNB-78 28.7 µM | NCI-H460 31.6 µM | EKVX 35.2 µM | HL-60 26.5 µM | XF498 26.6 µM | SK-OV-3 > 100 µM | SF-295 29 µM | SNB-19 54.1 µM | IGROV-1 36.8 µM | HCC 2998 47.4 µM | UACC-257 28.2 µM | A549 31.6 µM | LOX IMVI 31.5 µM | HOP-92 42.4 µM | A498 24.7 µM | SW-620 30.3 µM | M19-MEL 34.4 µM | HOP-62 33.3 µM | HT-29 31.1 µM | CAKI-1 39.8 µM | SN12C 57.8 µM | OVCAR-4 23.9 µM | M14 34.5 µM | KM12 24.6 µM | SF-268 40.6 µM | NCI-H522 26.4 µM | RXF 631 37.9 µM | ACHN 32.5 µM

From ChEMBL document CHEMBL1201862, “PubChem BioAssay data set” (2004)
